Results as given in ChEMBL document CHEMBL5653615 (J Biol Chem, 2013).

Experiments:
[1] = biological target: T1, Serine/threonine-protein kinase Nek1 (Homo sapiens) (UniProt Q96PY6); test: Inhibition of human NEK1 at 500 nM by HotSpot assay relative to control
T1 sequence (whole entry): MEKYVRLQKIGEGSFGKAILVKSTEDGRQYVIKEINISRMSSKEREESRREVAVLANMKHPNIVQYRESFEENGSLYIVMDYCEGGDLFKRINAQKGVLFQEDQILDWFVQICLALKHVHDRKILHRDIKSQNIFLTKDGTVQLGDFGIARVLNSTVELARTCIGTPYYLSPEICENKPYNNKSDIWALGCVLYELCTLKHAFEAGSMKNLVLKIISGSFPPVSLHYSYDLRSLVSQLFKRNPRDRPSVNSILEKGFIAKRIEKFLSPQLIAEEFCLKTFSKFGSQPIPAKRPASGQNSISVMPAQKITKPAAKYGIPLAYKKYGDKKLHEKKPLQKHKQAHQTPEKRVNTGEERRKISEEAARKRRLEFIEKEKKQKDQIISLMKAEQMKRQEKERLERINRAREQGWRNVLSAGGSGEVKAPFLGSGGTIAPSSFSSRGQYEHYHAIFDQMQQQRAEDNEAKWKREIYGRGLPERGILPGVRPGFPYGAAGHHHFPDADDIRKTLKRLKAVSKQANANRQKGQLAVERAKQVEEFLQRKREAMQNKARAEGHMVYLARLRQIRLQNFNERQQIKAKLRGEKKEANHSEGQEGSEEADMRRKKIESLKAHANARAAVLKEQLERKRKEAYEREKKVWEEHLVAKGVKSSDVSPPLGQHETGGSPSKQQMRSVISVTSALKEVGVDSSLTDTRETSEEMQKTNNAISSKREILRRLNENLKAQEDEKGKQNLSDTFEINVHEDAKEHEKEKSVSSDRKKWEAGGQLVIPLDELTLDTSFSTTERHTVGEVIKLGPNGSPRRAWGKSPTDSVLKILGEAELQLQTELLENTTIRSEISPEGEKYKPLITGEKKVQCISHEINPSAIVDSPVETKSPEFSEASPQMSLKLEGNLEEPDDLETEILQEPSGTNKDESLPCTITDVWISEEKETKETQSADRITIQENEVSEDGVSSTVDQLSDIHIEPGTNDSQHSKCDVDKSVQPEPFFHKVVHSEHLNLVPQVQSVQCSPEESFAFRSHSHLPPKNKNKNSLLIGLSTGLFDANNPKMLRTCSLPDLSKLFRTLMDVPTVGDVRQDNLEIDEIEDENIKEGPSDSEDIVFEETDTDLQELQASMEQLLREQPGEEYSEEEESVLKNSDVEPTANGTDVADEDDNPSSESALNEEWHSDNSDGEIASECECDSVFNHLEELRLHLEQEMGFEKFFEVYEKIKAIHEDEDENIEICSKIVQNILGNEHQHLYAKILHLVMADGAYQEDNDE

[2] = biological target: Serine/threonine-protein kinase PLK1 (Homo sapiens) (UniProt P53350); test: Inhibition of human PLK1 at 1.82 nM by HotSpot assay relative to control
Serine/threonine-protein kinase PLK1 (Homo sapiens), sequence (P53350 whole entry): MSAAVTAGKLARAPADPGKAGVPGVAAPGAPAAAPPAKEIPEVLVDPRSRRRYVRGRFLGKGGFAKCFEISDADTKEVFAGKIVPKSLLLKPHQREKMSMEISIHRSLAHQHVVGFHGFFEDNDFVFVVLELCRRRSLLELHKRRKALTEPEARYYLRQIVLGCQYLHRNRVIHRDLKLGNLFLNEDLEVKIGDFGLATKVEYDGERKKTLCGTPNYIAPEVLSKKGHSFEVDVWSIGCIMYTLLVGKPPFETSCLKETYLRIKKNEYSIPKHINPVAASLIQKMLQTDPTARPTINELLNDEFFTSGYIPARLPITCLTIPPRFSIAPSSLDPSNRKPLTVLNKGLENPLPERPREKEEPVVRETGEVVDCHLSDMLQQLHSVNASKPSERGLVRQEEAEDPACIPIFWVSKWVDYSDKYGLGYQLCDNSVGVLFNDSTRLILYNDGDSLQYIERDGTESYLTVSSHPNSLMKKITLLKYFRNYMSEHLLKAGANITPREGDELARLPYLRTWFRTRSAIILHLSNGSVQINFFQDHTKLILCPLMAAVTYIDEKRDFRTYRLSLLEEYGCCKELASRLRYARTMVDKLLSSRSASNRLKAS

[3] = biological target: Cyclin-dependent kinase 4/cyclin D1 (Homo sapiens) (UniProt P11802+P24385); test: Inhibition of human CDK4/cyclin D1 at 1.82 nM by HotSpot assay relative to control; type: protein-complex assay
[4] = biological target: Ephrin type-A receptor 5 (Homo sapiens) (UniProt P54756); test: Inhibition of human EPHA5 at 1.82 nM by HotSpot assay relative to control
Ephrin type-A receptor 5 (Homo sapiens), sequence (P54756 whole entry): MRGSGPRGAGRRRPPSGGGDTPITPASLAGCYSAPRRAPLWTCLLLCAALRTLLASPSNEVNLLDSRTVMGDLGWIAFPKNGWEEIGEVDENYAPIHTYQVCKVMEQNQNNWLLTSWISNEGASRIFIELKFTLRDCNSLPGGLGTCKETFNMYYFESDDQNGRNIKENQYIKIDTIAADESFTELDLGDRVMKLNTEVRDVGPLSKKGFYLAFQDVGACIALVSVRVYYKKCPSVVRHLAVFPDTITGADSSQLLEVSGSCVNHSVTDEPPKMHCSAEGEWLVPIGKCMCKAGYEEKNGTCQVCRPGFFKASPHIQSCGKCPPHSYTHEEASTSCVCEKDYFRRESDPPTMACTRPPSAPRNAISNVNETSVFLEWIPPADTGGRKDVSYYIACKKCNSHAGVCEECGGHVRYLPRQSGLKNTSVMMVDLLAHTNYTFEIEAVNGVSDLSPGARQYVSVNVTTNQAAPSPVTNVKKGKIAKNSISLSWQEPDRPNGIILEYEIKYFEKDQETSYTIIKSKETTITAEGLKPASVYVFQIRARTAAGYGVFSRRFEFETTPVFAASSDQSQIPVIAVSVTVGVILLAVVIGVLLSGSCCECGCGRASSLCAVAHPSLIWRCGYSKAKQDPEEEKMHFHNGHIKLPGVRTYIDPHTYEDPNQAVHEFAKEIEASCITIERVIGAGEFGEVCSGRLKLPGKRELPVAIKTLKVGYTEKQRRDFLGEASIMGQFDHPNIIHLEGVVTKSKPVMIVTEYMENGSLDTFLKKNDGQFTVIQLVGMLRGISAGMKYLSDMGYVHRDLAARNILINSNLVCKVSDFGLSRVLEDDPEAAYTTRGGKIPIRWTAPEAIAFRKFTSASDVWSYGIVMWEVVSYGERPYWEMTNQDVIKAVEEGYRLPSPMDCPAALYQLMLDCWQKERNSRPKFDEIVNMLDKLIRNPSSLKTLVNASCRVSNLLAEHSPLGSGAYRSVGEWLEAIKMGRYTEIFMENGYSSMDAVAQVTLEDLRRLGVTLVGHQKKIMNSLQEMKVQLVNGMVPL

[5] = biological target: T2, cGMP-dependent protein kinase 1 (Homo sapiens) (UniProt Q13976); test: Inhibition of human PKG1b at 1.82 nM by HotSpot assay relative to control
T2 sequence (whole entry): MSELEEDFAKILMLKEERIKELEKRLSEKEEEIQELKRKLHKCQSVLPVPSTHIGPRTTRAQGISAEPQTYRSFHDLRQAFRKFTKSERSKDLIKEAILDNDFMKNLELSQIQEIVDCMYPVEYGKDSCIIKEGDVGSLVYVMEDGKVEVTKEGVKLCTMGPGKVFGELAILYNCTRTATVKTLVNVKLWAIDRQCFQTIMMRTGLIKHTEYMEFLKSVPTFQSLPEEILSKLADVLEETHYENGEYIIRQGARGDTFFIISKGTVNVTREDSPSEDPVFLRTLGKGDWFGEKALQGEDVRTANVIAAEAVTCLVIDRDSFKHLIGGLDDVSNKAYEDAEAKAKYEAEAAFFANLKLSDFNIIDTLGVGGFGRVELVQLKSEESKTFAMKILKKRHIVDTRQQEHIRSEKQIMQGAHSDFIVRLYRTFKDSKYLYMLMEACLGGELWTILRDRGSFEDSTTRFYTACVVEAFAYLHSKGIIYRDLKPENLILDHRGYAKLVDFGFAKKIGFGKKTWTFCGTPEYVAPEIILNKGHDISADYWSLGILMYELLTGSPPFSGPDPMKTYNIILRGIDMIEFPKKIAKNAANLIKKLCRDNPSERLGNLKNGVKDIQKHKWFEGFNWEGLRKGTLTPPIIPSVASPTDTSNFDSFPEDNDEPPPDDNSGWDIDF

[6] = biological target: Myosin light chain kinase, smooth muscle (Homo sapiens) (UniProt Q15746); test: Inhibition of human MYLK at 1.82 nM by HotSpot assay relative to control
Myosin light chain kinase, smooth muscle (Homo sapiens), sequence (Q15746 whole entry): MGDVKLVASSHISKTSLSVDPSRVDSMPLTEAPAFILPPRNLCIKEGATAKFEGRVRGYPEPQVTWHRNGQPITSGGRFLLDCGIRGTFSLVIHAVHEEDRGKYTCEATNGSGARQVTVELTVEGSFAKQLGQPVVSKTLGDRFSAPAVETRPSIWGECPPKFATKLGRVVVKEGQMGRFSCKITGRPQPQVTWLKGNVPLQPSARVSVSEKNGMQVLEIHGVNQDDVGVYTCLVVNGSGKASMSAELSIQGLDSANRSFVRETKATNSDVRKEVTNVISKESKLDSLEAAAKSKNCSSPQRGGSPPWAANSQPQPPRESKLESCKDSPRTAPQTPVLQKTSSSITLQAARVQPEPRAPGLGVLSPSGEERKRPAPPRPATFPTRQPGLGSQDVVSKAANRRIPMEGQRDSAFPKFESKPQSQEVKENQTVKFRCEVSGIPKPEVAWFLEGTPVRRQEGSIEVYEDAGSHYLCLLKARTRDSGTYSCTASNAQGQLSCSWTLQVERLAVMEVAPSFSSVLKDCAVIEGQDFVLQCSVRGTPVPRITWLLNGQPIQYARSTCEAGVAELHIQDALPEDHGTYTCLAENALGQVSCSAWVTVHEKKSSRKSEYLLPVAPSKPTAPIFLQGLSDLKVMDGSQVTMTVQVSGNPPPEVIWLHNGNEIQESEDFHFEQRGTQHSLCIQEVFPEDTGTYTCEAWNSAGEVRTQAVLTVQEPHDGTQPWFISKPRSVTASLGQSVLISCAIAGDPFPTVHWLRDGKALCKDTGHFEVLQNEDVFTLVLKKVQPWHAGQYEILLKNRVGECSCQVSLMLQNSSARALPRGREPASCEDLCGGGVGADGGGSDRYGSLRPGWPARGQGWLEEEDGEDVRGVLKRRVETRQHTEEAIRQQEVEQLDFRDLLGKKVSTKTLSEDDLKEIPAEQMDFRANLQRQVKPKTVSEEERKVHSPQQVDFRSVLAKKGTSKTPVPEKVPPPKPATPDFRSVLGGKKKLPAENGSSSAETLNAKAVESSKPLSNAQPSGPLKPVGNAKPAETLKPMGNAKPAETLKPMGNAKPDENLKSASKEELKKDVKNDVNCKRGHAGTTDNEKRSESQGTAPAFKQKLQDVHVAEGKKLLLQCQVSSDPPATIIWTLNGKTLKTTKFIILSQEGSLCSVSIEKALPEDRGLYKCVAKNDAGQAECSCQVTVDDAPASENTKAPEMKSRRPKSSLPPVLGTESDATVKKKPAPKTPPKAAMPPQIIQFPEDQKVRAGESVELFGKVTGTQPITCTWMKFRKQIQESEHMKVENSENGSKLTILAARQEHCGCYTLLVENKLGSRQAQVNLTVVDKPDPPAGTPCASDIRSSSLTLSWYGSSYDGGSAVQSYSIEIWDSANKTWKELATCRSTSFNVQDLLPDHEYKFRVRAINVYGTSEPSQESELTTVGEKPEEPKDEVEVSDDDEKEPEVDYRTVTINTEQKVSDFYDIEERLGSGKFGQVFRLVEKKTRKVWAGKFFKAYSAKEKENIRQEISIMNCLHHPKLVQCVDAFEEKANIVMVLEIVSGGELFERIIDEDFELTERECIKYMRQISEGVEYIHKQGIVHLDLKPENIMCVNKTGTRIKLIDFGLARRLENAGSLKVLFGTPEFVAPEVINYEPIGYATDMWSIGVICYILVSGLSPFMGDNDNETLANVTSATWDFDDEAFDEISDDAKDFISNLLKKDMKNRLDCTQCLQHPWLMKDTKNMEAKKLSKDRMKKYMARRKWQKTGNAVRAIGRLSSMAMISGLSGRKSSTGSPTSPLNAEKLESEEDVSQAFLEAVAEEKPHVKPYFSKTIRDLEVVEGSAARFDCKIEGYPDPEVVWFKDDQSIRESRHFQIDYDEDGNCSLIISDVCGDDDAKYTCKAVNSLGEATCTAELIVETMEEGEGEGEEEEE

Homo sapiens = species on record: Homo sapiens; test: Inhibition of human TAO1 at 1.82 nM by HotSpot assay relative to control
[7] = biological target: T3, Lymphokine-activated killer T-cell-originated protein kinase (Homo sapiens) (UniProt Q96KB5); test: Inhibition of human TOPK at 18.6 nM by HotSpot assay relative to control
T3 sequence (whole entry): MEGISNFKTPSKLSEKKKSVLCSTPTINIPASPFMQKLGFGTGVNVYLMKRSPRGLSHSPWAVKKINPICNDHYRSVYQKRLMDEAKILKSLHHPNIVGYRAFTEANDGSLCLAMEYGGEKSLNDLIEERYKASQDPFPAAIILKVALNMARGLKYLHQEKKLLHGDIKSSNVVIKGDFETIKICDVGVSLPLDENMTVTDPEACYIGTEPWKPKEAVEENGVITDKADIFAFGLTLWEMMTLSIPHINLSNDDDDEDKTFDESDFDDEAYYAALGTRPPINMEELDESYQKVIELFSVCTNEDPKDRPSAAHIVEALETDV

[8] = biological target: Cyclin-dependent kinase 1/cyclin B1 (Homo sapiens) (UniProt P06493+P14635); test: Inhibition of human CDK1/cyclin B at 18.6 nM by HotSpot assay relative to control; type: protein-complex assay
Cyclin-dependent kinase 1/cyclin B1 (Homo sapiens), sequence (P06493 whole entry, looked up): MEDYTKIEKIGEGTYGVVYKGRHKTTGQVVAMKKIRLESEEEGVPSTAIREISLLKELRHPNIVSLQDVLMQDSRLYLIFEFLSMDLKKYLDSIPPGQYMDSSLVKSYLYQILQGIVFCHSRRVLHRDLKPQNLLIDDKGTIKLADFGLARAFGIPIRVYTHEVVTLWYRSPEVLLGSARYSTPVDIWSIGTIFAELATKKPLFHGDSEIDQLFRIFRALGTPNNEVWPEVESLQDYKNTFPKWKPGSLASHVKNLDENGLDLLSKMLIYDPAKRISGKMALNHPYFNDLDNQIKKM
Cyclin-dependent kinase 1/cyclin B1 (Homo sapiens), sequence (P14635 whole entry, looked up): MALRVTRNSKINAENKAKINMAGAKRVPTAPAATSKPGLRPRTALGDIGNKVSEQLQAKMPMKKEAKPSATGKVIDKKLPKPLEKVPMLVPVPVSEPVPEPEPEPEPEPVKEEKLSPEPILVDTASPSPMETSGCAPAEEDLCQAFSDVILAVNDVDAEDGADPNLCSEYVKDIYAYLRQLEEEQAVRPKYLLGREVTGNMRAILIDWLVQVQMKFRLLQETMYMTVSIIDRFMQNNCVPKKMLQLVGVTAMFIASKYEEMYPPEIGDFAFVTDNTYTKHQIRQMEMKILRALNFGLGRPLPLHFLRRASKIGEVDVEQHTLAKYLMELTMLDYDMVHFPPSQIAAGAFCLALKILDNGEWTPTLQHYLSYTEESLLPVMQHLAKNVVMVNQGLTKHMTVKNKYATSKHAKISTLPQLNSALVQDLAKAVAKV

[9] = biological target: Serine/threonine-protein kinase SIK2 (Homo sapiens) (UniProt Q9H0K1); test: Inhibition of human SIK2 at 18.6 nM by HotSpot assay relative to control

Nc1n[nH]c2nnc(-c3c(-c4ccccc4)nn4ccccc34)cc12
inhibition [1]: -9.24%

C[C@@]1(C(=O)Nc2ccc(F)nc2)CCCN1c1nc(Nc2cc(C3CC3)n[nH]2)c2cccn2n1
inhibition [2]: -4.97%
inhibition [3]: -5.89%
inhibition [4]: -1.69%
inhibition [5]: -2.16%
inhibition [6]: 2.24%
inhibition (Homo sapiens): 1.46%

C[C@]1(O)C[C@@H](c2nc(-c3ccc4ccc(-c5ccccc5)nc4c3)c3c(N)nccn32)C1
inhibition [7]: 1.57%
inhibition [8]: 1.65%
inhibition [9]: -8.94%
